According to publication PMC10541198, “Specific quinone reductase 2 inhibitors reduce metabolic burden and reverse Alzheimer’s disease phenotype in mice” (The Journal of Clinical Investigation, 2023):
Values joined by “and” are separate entries in the source; they are usually repeats but may differ in a detail not shown here. Identical values can stand only once. Like-named read-outs stand apart in the source and are kept apart here.

Assay: Pharmacokinetic study, IV and PO, plasma, brain and liver
Type: in vivo, mouse
Conditions: for tolerability / adverse effects: 50 mg/kg p.o. or 10 mg/kg i.v., up to 24 hours; for Plasma concentration, Mean: BQL = below LLOQ (10 ng/ml); for k el: read-out: Kel (Lambda_z) (converted); for MRT inf: read-out: MRT (MRTinf) (converted); for MRT last: read-out: MRT (MRTlast) (converted); for AUC(0-inf): read-out: AUC0→∞ (AUCINF_obs) (converted)
Protocol: The purpose of this study was to determine the pharmacokinetic characteristics of compound NG-537 in C57BL/6J mice following intravenous (IV) and peroral (PO) administration. Levels of NG-537 were determined in blood plasma , brain and liver over time after a single dose .
3.1 Reagents and consumables
DMSO Chromasolv Plus, HPLC grade, ≥99.7% (Sigma-Aldrich, USA; Cat #34869) Acetonitrile Chromasolv, gradient grade, for HPLC, ≥99.9% (Sigma-Aldrich, USA; Cat #34851) Methanol Chromasolv Plus, for HPLC, ≥99.9% (Sigma -Aldrich, USA; Cat 34860) Formic acid for mass spectrometry, ~98% (Fluka, USA; Cat #94318)
Physiological saline (“Yuria -Pharm”, Ukraine, S/# AA13249/1 -1)
Amyl alcohol (UOS, Ukraine) […]
Compound Thiamethoxam was used as internal standard (IS).
Compound NG-537 was supplied as dry powder. The batches of working formulations were prepared 20 min prior to the in vivo study. The vehicle was saline. To prepare the formulation, saline was added to the test compound. The mixture was vortexed for 1 min.
Gradient HPLC system (Shimadzu, Japan)
MS/MS detector API 3000 PE with TurboIonSpray Electrospray module (PE Sciex, Canada) VWR Membrane Nitrogen Generators N2-04-L1466. nitrogen purity 99%+ (VWR, USA) Water purification system Millipore Milli-Q Gradient A10 (Millipore, France) Fixed Speed Vortex Mixer “IKA Lab Dancer” (IKA®-Werke GmbH & Co. KG, Germany; IP-40) Centrifuge 4-15C (Qiagen) (Sigma, Germany)
Ultrasonic bath (Daihan, Korea; WUC-A03H)
(1 picture or pasted object on this page, not shown here)
Study design, animal selection, handling and treatment were all in accordance with the Enamine PK study protocols and the Institutional Animal Care and Use Guidelines. Animal treatment and plasma samples preparation were conducted by the Animal Laboratory personnel at Enamine/Bienta. Male C57BL/6J mice (9-11 weeks old, body weight from 26.1 g to 39.8 g and average body weight across all groups 31.9 g SD = 3.3 g) were used in this study. The animals were randomly assigned to the treatment groups before the pharmacokinetic study; all animals were fasted for 4 h before dosing. Seven time points (5, 15, 30, 60, 240, 480, and 1440 min) were set for this pharmacokinet ic study. Each of the time point treatment group included 4 animals. There was also control group of one animal . Dosing was done according to the treatment schedule outlined in Table 1. Mice were injected IP with 2,2,2-tribromoethanol at the dose of 250 mg/kg prior to drawing the blood. Blood collection was performed from the left ventricle of the heart in tubes containing 10 μl of heparin solution (400 ui/ml). The brain and liver were perfused before sampling. The animal died due to exsanguination during perfusion under anesthesia. All samples were immediately processed, flash-frozen and stored at -70°C until subsequent analysis.
Number of Delivery Target Dose Target Dose Target Dose
Mice Compound ID Formulation Route Level Concentration Volume […]
Plasma samples (40 μl) were mixed with 200 μl of IS solution. After mixing by pipetting and centrifuging for 4 min at 6,000 rpm, 2 μl of each supernatant was injected into LC-MS/MS system.
Solution of compound Thiamethoxam (400 ng/ml in water-methanol mixture 1:9, v/v) was used as internal standard (IS) for quantification of NG-537 in plasma samples.
Analyses of samples were conducted by the Bioanalytical Laboratory personnel at Enamine/Bienta.
Concentrations of NG-537 were determined using high performance liquid chromatography/tandem mass spectrometry (HPLC-MS/MS). Shimadzu HPLC system consisted 2 isocratic pumps LC-10ADvp, an autosampler SIL-20AC, a sub-controller FCV-14AH and a degasser DGU-14A. Mass spectrometric analysis was performed using API 3000 (triple-quadrupole) instrument from AB Sciex (Canada) with an electro -spray (ESI) interface. The data acquisition and system control was performed using Analyst 1.5.2 software (AB […]
3.6 HPLC-MS/MS Conditions
Chromatographic Conditions: […]

[1] = IV 10 mg/kg, 15 min, listed as NG-537, 10 mg/kg
[2] = PO 50 mg/kg, 15 min, listed as NG-537, 50 mg/kg
[3] = male, C57BL/6J, mouse, brain, PO 50 mg/kg
[4] = male, C57BL/6J, mouse, liver, PO 50 mg/kg
[5] = male, C57BL/6J, mouse, plasma, IV 10 mg/kg
[6] = male, C57BL/6J, mouse, plasma, PO 50 mg/kg

Cc1ccc(-c2cn3cccc(C)c3n2)cc1S(=O)(=O)N1CCNCC1 [YB-537]
tolerability / adverse effects: nontoxic and well tolerated
tolerability / adverse effects (listed as NG-537): No obvious adverse effects were observed
bioavailability (C57BL/6J, mouse, in vivo, PO 50 mg/kg vs IV 10 mg/kg, male mice): 82%
Liver concentration, Mouse A-D [1]: 17352 ng/g and 12944 ng/g and 10288 ng/g
Plasma concentration, Mouse A-D [1]: 1001 ng/mL and 1370 ng/mL and 836 ng/mL
Plasma concentration, Mean (IV 10 mg/kg, 240 min): BQL
Plasma concentration, Mouse A-D (IV 10 mg/kg, 240 min, all four BQL): BQL
Plasma concentration, Mean (IV 10 mg/kg, 480 min): BQL
Plasma concentration, Mouse A-D (IV 10 mg/kg, 480 min, all four BQL): BQL
Plasma concentration, Mean (IV 10 mg/kg, 1440 min): BQL
Plasma concentration, Mouse A-D (IV 10 mg/kg, 1440 min, all four BQL): BQL
Brain concentration, Mouse A-D [2]: 227 ng/g and 139 ng/g and 162 ng/g
Plasma concentration, Mouse A-D [2]: 1721 ng/mL and 2715 ng/mL and 1977 ng/mL
Plasma concentration, Mouse A-D (PO 50 mg/kg, 30 min, listed as NG-537, 50 mg/kg): 1258 ng/mL and 2296 ng/mL and 1618 ng/mL
Brain concentration, Mouse A-D (PO 50 mg/kg, 60 min, listed as NG-537, 50 mg/kg): 158 ng/g and 264 ng/g and 241 ng/g
Plasma concentration, Mean (PO 50 mg/kg, 480 min): BQL
Plasma concentration, Mean (PO 50 mg/kg, 1440 min): BQL
Plasma concentration, Mouse A-D (PO 50 mg/kg, 1440 min, all four BQL): BQL
AUC0→t=240min (AUClast) (brain, PO 50 mg/kg): 30500 ng·min/g
AUC0→∞ (AUCINF_obs) (brain, PO 50 mg/kg): 33100 ng·min/g
time of peak brain concentration after oral administration (brain, PO 50 mg/kg): approximately one
time of peak brain concentration following p.o. administration (brain, PO 50 mg/kg): 1 h
peak brain concentration, molar equivalent (brain, oral administration, equivalent of 203 ng/g): approximately 500 nM
AUC0→t=240min (AUClast) (liver, PO 50 mg/kg): 5530000 ng·min/g
AUC0→∞ (AUCINF_obs) (liver, PO 50 mg/kg): 5850000 ng·min/g
concentration at 15 min (male, C57BL/6J, mouse, brain, iv, 10 mg/kg, IV 10 mg/kg, 15 min, read-out: Brain concentration, Mean): 1070 ng/g
concentration at 15 min (male, C57BL/6J, mouse, brain, po, 50 mg/kg, PO 50 mg/kg, 15 min, read-out: Brain concentration, Mean): 172 ng/g
concentration at 15 min (male, C57BL/6J, mouse, brain, po, 50 mg/kg, PO 50 mg/kg, 15 min, read-out: Brain concentration, Mouse A-D): 161 ng/g
concentration at 60 min (male, C57BL/6J, mouse, brain, po, 50 mg/kg, PO 50 mg/kg, 60 min, read-out: Brain concentration, Mean): 203 ng/g
concentration at 60 min (male, C57BL/6J, mouse, brain, po, 50 mg/kg, PO 50 mg/kg, 60 min, read-out: Brain concentration, Mouse A-D): 148 ng/g
concentration at 240 min (male, C57BL/6J, mouse, brain, po, 50 mg/kg, PO 50 mg/kg, 240 min, BQL = below LLOQ, read-out: Brain concentration, Mouse A-D): 37 ng/g
concentration at 240 min (male, C57BL/6J, mouse, brain, po, 50 mg/kg, PO 50 mg/kg, 240 min, read-out: Brain concentration, Mean): 28 ng/g
half-life (male, C57BL/6J, mouse, in vivo, po, 50 mg/kg, brain, PO 50 mg/kg, read-out: T1/2 (HL_Lambda_z)): 63.5 min
half-life (male, C57BL/6J, mouse, in vivo, po, 50 mg/kg, mouse brain, acute oral dosing, read-out: clearance half life (converted)): ~60 min
concentration at 15 min (male, C57BL/6J, mouse, liver, iv, 10 mg/kg, IV 10 mg/kg, 15 min, read-out: Liver concentration, Mean): 13100 ng/g
concentration at 15 min (male, C57BL/6J, mouse, liver, iv, 10 mg/kg, IV 10 mg/kg, 15 min, read-out: Liver concentration, Mouse A-D): 12000 ng/g
concentration at 15 min (male, C57BL/6J, mouse, liver, po, 50 mg/kg, PO 50 mg/kg, 15 min, read-out: Liver concentration, Mean): 67700 ng/g
concentration at 60 min (male, C57BL/6J, mouse, liver, po, 50 mg/kg, PO 50 mg/kg, 60 min, read-out: Liver concentration, Mean): 28000 ng/g
concentration at 240 min (male, C57BL/6J, mouse, liver, po, 50 mg/kg, PO 50 mg/kg, 240 min, read-out: Liver concentration, Mean): 3900 ng/g
concentration at 5 min (male, C57BL/6J, mouse, plasma, iv, 10 mg/kg, IV 10 mg/kg): 2010 ng/mL
concentration at 15 min (male, C57BL/6J, mouse, plasma, iv, 10 mg/kg, IV 10 mg/kg, 15 min, read-out: Plasma concentration, Mean): 1020 ng/mL
concentration at 15 min (male, C57BL/6J, mouse, plasma, iv, 10 mg/kg, IV 10 mg/kg, 15 min, read-out: Plasma concentration, Mouse A-D): 863 ng/mL
concentration at 30 min (male, C57BL/6J, mouse, plasma, iv, 10 mg/kg, IV 10 mg/kg, 30 min, read-out: Plasma concentration, Mean): 432 ng/mL
concentration at 60 min (male, C57BL/6J, mouse, plasma, iv, 10 mg/kg, IV 10 mg/kg, 60 min, read-out: Plasma concentration, Mean): 191 ng/mL
concentration at 5 min (male, C57BL/6J, mouse, plasma, po, 50 mg/kg, PO 50 mg/kg): 451 ng/mL
concentration at 15 min (male, C57BL/6J, mouse, plasma, po, 50 mg/kg, PO 50 mg/kg, 15 min, read-out: Plasma concentration, Mean): 2030 ng/mL
concentration at 15 min (male, C57BL/6J, mouse, plasma, po, 50 mg/kg, PO 50 mg/kg, 15 min, read-out: Plasma concentration, Mouse A-D): 1720 ng/mL
concentration at 30 min (male, C57BL/6J, mouse, plasma, po, 50 mg/kg, PO 50 mg/kg, 30 min, read-out: Plasma concentration, Mean): 1720 ng/mL
concentration at 30 min (male, C57BL/6J, mouse, plasma, po, 50 mg/kg, PO 50 mg/kg, 30 min, read-out: Plasma concentration, Mouse A-D): 1730 ng/mL
concentration at 60 min (male, C57BL/6J, mouse, plasma, po, 50 mg/kg, PO 50 mg/kg, 60 min, read-out: Plasma concentration, Mean): 1130 ng/mL
concentration at 240 min (male, C57BL/6J, mouse, plasma, po, 50 mg/kg, PO 50 mg/kg, 240 min, read-out: Plasma concentration, Mean): 151 ng/mL
concentration at 480 min (male, C57BL/6J, mouse, plasma, po, 50 mg/kg, PO 50 mg/kg, 480 min, three BQL, 15 marked as Grubbs outlier, read-out: Plasma concentration, Mouse A-D): 15 ng/mL
Tmax [3]: 60 min
Cmax (male, C57BL/6J, mouse, brain, PO 50 mg/kg, read-out: Cmax (peak concentration)): 203 ng/g
k el [3]: 0.000182 s⁻¹
MRT inf [3]: 88.2 min
MRT last [3]: 67.5 min
Tmax [4]: 15 min
Cmax (male, C57BL/6J, mouse, liver, PO 50 mg/kg, read-out: Cmax): 67700 ng/g
k el [4]: 0.000203 s⁻¹
MRT inf [4]: 69.5 min
MRT last [4]: 54.9 min
half-life (male, C57BL/6J, mouse, liver, PO 50 mg/kg, read-out: T1/2 (HL_Lambda_z)): 56.8 min
C0 [5]: 2820 ng/mL
AUC(0-t) (male, C57BL/6J, mouse, plasma, IV 10 mg/kg, read-out: AUC0→t=60min (AUClast) (converted)): 790 ng·h/mL
AUC(0-inf) [5]: 867 ng·h/mL
clearance (male, C57BL/6J, mouse, plasma, IV 10 mg/kg, read-out: CL (Cl_obs)): 190 mL/min/kg
k el [5]: 0.000695 s⁻¹
MRT inf [5]: 21.4 min
MRT last [5]: 15.4 min
half-life (male, C57BL/6J, mouse, plasma, IV 10 mg/kg, read-out: T1/2 (HL_Lambda_z)): 16.6 min
Vd (male, C57BL/6J, mouse, plasma, IV 10 mg/kg, read-out: Vd (Vz_obs)): 5 L/kg
Tmax [6]: 15 min
AUC(0-t) (male, C57BL/6J, mouse, plasma, PO 50 mg/kg, read-out: AUC0→t=240min (AUClast) (converted)): 3330 ng·h/mL
AUC(0-inf) [6]: 3550 ng·h/mL
Cmax (male, C57BL/6J, mouse, plasma, PO 50 mg/kg, read-out: Cmax): 2030 ng/mL
k el [6]: 0.000192 s⁻¹
MRT inf [6]: 76.2 min
MRT last [6]: 59.8 min
Cmax (plasma, IV 10 mg/kg (summary table)): 2010 ng/ml(g)
